The text below walks through data of US20260365690A1, “COMPOUND FOR RNA CAPPING AND USE THEREOF” (GUANGZHOU HENOVCOM BIOSCIENCE CO., LTD., priority 2022, published 2026).

Experiment [1] has as its system mRNA. Description: mRNA synthesis by in vitro transcription (co-transcriptional capping), final product mass. Particulars: obtained from 20 μL mRNA synthesis reaction system; T7 RNA Polymerase; cap analog 4 mM; 37 °C, 2 to 3 hours. The format is biochemical. Here is the method: (§1) 1) The plasmids were linearized and the DNA templates were purified.
(§2) 2) The mRNA was synthesized by in vitro transcription, using 11 cap structures of the present disclosure, positive control CleanCap®AG (3′OMe) (Trilink, N-7413), negative control (uncapped mRNA) and blank control (DNase/RNase-Free water), respectively.
(§3) The reaction was carried out at 37 °C for 2 to 3 hours. TURBO DNase digestion was carried out for 15 minutes. The mRNA was precipitated by LiC for 30 min or more or overnight, and the mRNA precipitate was washed with 75% ethanol, dried briefly to evaporate the ethanol, and the mRNA was redissolved with RNase-Free water.
3) The transcription product was purified, and the reaction yield was calculated to provide the test results of some compounds, as shown in Table 2.

The next experiment deals with HEK293T cells. Nature of the experiment: Expression efficiency of capped luciferase mRNAs in HEK293T cells. The format is cell-based. Particulars: 6 h after transfection of capped luciferase mRNA into HEK293T cells; ratio to N-7413 (= 1). Here is the method:
2. Evaluation of Expression Efficiency of Different Capped Luciferase mRNAs in HEK293T Cells
1) HNE293T cells were cultured in DMEM medium containing 10% FBS and penicillin/streptomycin at 37 °C and 5% CO2.
2) The cultured HEK293T cells were spread in a 96-well plate with 1.25×10^4 cells per well.
3) After the cells completely adhered to the wall, 0.5 μg of a mixture of mRNA sample and Polyplus jetMESSENGER was added to each well of cells, and cultured at 37 °C and 5% CO2 for 6 hours.
4) The growth medium was removed from the cells to be tested and the cells were rinsed with PBS. After centrifugation to remove PBS, 50 μL of 1× lysis buffer was added thereto, and cells and all liquid were transferred to a microcentrifuge tube, and then centrifuged at 12000×g and 4 °C for 2 min.
5) The supernatant was transferred to a new tube. Fluorescence readings were detected using the ONE-Glo Luciferase Assay System Kit.
3. All compounds, N-7413, negative control and blank control were tested under the same conditions, and some experimental results in the test results are shown in Table 5.
The relative fluorescence reading results (6 h) after transfection of capped mRNA into 293T cells are now provided, as shown in Table 5. It can be seen from the FIGURE that the mRNA capped by the compound of the present disclosure has a high expression level, and some cap structures can enable higher expression efficiency of mRNA compared to N-7413.

In experiment [2] the test system is mRNA. Nature of the experiment: Capping efficiency of mRNA by LC-MS. The format is biochemical. The conditions noted are these: cap analog 4 mM in in vitro transcription, RNase H cleaved 5′ fragment. Here is the method:
as §1, §2, §3
Gradient annealing was performed in a PCR instrument: […]
5) Magnetic beads were pre-treated and bound to probes.
100 μL of magnetic beads were taken and placed on a magnetic stand. The storage solution was discarded, and 100 μL of 1*BW solution was added thereto. After mixing well, the mixture was placed on the magnetic stand, and the supernatant was discarded. The wash was carried out three times in the same way. 100 μL of wash A buffer was added thereto. After mixing well, the mixture was placed on the magnetic stand, and the supernatant was discarded. The wash was carried out three times in the same way. 100 μL of wash B buffer was added thereto. After mixing well, the mixture was placed on the magnetic stand, and the supernatant was discarded. The wash was carried out three times in the same way. 120 μL of the sample was added to the magnetic bead solution and incubated for 30 min at room temperature with gentle mixing while incubating.
6) The mRNA was cut to obtain the 5′ single-stranded sequence of mRNA bound to probes.
20 μL of RNase H (5 U/μL) was added thereto, incubated at 37 °C for 3 hours, and mixed well every half hour. 100 μL of 1*BW solution was added thereto. After mixing well, the mixture was placed on the magnetic stand, and the supernatant was discarded. The wash was carried out three times in the same way. 100 μL of deionized water solution was added thereto. After mixing well, the mixture was placed on the magnetic stand, and the supernatant was discarded. The wash was carried out three times in the same way. 100 μL of 75% methanol was added thereto at 80 °C, then the mixture was heated to 80 °C on a heating plate and held for 3 min, placed on the magnetic stand, and the supernatant was aspirated. The sample was dried at room temperature for 45 min to 10 μL using an evaporative centrifuge and then resuspended in 50 μL of 100 μM EDTA/1% MeOH for LC-MS analysis.
LC-MS was used to analyze the capping efficiency of mRNA synthesized by analogues with different cap structures. The capping efficiency results of some compounds in the detection results are now provided.

In the case of `C/C=C/C[C@H]1[C@@H](O)[C@H](n2c[n+](C)c3c(=O)[nH]c(N)nc32)O[C@@H]1COP(=O)(O)OP(=O)(O)OP(=O)(O)OC[C@H]1O[C@@H](n2cnc3c(N)ncnc32)[C@H](OC)[C@@H]1OP(=O)([O-])OC[C@H]1O[C@@H](n2cnc3c(=O)[nH]c(N)nc32)[C@H](O)[C@@H]1O` [Compound 711], in the experiment with mRNA [1], the Final product mass is 106 µg. The Relative fluorescence reading with HEK293T cells is on record as 1.86.

`CC[C@H]1[C@@H](O)[C@H](n2c[n+](C)c3c(=O)[nH]c(N)nc32)O[C@@H]1COP(=O)(O)OP(O)(=S)OP(=O)(O)OC[C@H]1O[C@@H](n2cnc3c(N)ncnc32)[C@H](OC)[C@@H]1OP(=O)([O-])OC[C@H]1O[C@@H](n2cnc3c(=O)[nH]c(N)nc32)[C@H](O)[C@@H]1O` (stereo partly shown) [Compound 718] showed a Final product mass in the experiment on mRNA [1] of 106 µg. Also, the Relative fluorescence reading in the experiment with HEK293T cells was 1.66.

Take `CO[C@@H]1[C@H](OP(=O)(O)OC[C@H]2O[C@@H](n3cnc4c(=O)[nH]c(N)nc43)[C@H](O)[C@@H]2O)[C@@H](COP(=O)(O)OP(=O)(O)OP(=O)(O)OC[C@H]2O[C@@H](n3c[n+](C)c4c(=O)[nH]c(N)nc43)[C@H](O)[C@@H]2NC(=O)C(C)(C)C)O[C@H]1n1cnc2c(N)ncnc21` [Compound 722]: the Final product mass with mRNA [1] is 103 µg. The Relative fluorescence reading with HEK293T cells is listed as 1.74.

Turning to `CO[C@@H]1[C@H](CC(=O)NC[C@H]2O[C@@H](n3cnc4c(=O)[nH]c(N)nc43)[C@H](O)[C@@H]2O)[C@@H](COP(=O)(O)OP(=O)(O)OP(=O)(O)OC[C@H]2O[C@@H](n3c[n+](C)c4c(=O)[nH]c(N)nc43)[C@H](O)[C@@H]2C)O[C@H]1n1cnc2c(N)ncnc21` [Compound 59], the Final product mass with mRNA [1] came out at 91 µg. In the experiment with HEK293T cells, the Relative fluorescence reading stood at 0.71.

Consider `CO[C@@H]1[C@H](OP(=O)(O)OC[C@H]2O[C@@H](n3cnc4c(=O)[nH]c(N)nc43)[C@H](O)[C@@H]2O)[C@@H](COP(=O)(O)OP(=O)(O)OP(=O)(O)OC[C@H]2O[C@@H](n3c[n+](C)c4c(=O)[nH]c(N)nc43)[C@H](O)[C@@H]2N=[N+]=[N-])O[C@H]1n1cnc2c(N)ncnc21` [Compound 399], for which the Final product mass in the experiment on mRNA [1] is 117 µg. The Relative fluorescence reading with HEK293T cells is given as 1.51.

On to `CO[C@@H]1[C@H](OP(=O)([O-])OC[C@H]2O[C@@H](n3cnc4c(=O)[nH]c(N)nc43)[C@H](O)[C@@H]2O)[C@@H](COP(=O)(O)OP(=O)(O)OP(=O)(O)OC[C@H]2O[C@@H](n3c[n+](C)c4c(=O)[nH]c(N)nc43)[C@H](O)[C@@H]2OC)O[C@H]1n1cnc2c(N)ncnc21` [Compound N-7413, reference compound], for which, in the experiment with mRNA [1], the Final product mass was 114 µg. Moreover, the Relative fluorescence reading in the experiment on HEK293T cells is reported as 1.00.

On to `CO[C@@H]1[C@H](OP(=O)(O)OC[C@H]2O[C@@H](n3cnc4c(=O)[nH]c(N)nc43)[C@H](O)[C@@H]2O)[C@@H](COP(=O)(O)OP(=O)(O)OP(=O)(O)OC[C@H]2O[C@@H](n3c[n+](C)c4c(=O)[nH]c(N)nc43)[C@H](O)[C@@H]2C)O[C@H]1n1cnc2c(N)ncnc21` [Compound 1], for which, in the experiment with mRNA [1], the Final product mass was 96 µg. In the experiment with mRNA [2], the Capping efficiency entry was “A (100% > A ≥ 95%)”. The Relative fluorescence reading in the experiment with HEK293T cells amounted to 1.74.

On to `C=CC[C@H]1[C@@H](O)[C@H](n2c[n+](C)c3c(=O)[nH]c(N)nc32)O[C@@H]1COP(=O)(O)OP(=O)(O)OP(=O)(O)OC[C@H]1O[C@@H](n2cnc3c(N)ncnc32)[C@H](OC)[C@@H]1OP(=O)(O)OC[C@H]1O[C@@H](n2cnc3c(=O)[nH]c(N)nc32)[C@H](O)[C@@H]1O` [Compound 710], for which the Final product mass with mRNA [1] was 108 µg. Besides, the Capping efficiency result in the experiment on mRNA [2] is “A (100% > A ≥ 95%)”. Also, the Relative fluorescence reading in the experiment on HEK293T cells came out at 1.90.

As for `CNC(=O)[C@H]1[C@@H](O)[C@H](n2c[n+](C)c3c(=O)[nH]c(N)nc32)O[C@@H]1COP(=O)(O)OP(=O)(O)OP(=O)(O)OC[C@H]1O[C@@H](n2cnc3c(N)ncnc32)[C@H](OC)[C@@H]1OP(=O)(O)OC[C@H]1O[C@@H](n2cnc3c(=O)[nH]c(N)nc32)[C@H](O)[C@@H]1O` [Compound 191], the Final product mass in the experiment with mRNA [1] is 100 µg. Moreover, in the experiment on HEK293T cells, the Relative fluorescence reading worked out at 1.68.

On to `CO[C@@H]1[C@H](OP(=O)(O)OC[C@H]2O[C@@H](n3cnc4c(=O)[nH]c(N)nc43)[C@H](O)[C@@H]2O)[C@@H](COP(=O)(O)OP(=O)(O)CP(=O)(O)OC[C@H]2O[C@@H](n3c[n+](C)c4c(=O)[nH]c(N)nc43)[C@H](O)[C@@H]2CCF)O[C@H]1n1cnc2c(N)ncnc21` [Compound 103], for which, in the experiment with mRNA [1], the Final product mass was 94 µg. Further, in the experiment with HEK293T cells, the Relative fluorescence reading is 1.45.

`CCCCCCNC(=O)[C@H]1[C@@H](O)[C@H](n2c[n+](C)c3c(=O)[nH]c(N)nc32)O[C@@H]1COP(=O)(O)OP(=O)(O)OP(=O)(O)OC[C@H]1O[C@@H](n2cnc3c(N)ncnc32)[C@H](OC)[C@@H]1OP(=O)(O)OC[C@H]1O[C@@H](n2cnc3c(=O)[nH]c(N)nc32)[C@H](O)[C@@H]1O` [Compound 205] had a Final product mass in the experiment with mRNA [1] of 98 µg. The Relative fluorescence reading with HEK293T cells is reported as 1.52.

Turning to `CCC[C@H]1[C@@H](O)[C@H](n2c[n+](C)c3c(=O)[nH]c(N)nc32)O[C@@H]1COP(=O)(O)OP(=O)(O)OP(=O)(O)OC[C@H]1O[C@@H](n2cnc3c(NC)ncnc32)[C@H](OC)[C@@H]1OP(=O)(O)OC[C@H]1O[C@@H](n2cnc3c(=O)[nH]c(N)nc32)[C@H](O)[C@@H]1O` [Compound 719], in the experiment with mRNA [1], the Final product mass was determined as 97 µg. In addition, the Relative fluorescence reading in the experiment on HEK293T cells turned out to be 1.69.

The molecule `CO[C@@H]1[C@H](OP(=O)(O)OC[C@H]2O[C@@H](n3cnc4c(=O)[nH]c(N)nc43)[C@H](O)[C@@H]2O)[C@@H](COP(=O)(O)OP(=O)(O)OP(=O)(O)OC[C@H]2O[C@@H](n3c[n+](C)c4c(=O)[nH]c(N)nc43)[C@H](O)[C@@H]2NC(=O)C(C)C)O[C@H]1n1cnc2c(N)ncnc21` [Compound 293] displayed a Final product mass with mRNA [1] of 103 µg. The Relative fluorescence reading in the experiment with HEK293T cells was found to be 1.68.

`CCC(=O)N[C@H]1[C@@H](O)[C@H](n2c[n+](C)c3c(=O)[nH]c(N)nc32)O[C@@H]1COP(=O)(O)OP(=O)(O)OP(=O)(O)OC[C@H]1O[C@@H](n2cnc3c(N)ncnc32)[C@H](OC)[C@@H]1OP(=O)(O)OC[C@H]1O[C@@H](n2cnc3c(=O)[nH]c(N)nc32)[C@H](O)[C@@H]1O` [Compound 291] came in with a Final product mass in the experiment on mRNA [1] of 106 µg. Also, the Relative fluorescence reading in the experiment with HEK293T cells is recorded as 1.60.

In turn, `CO[C@@H]1[C@H](OP(=O)(O)OC[C@H]2O[C@@H](n3cnc4c(=O)[nH]c(N)nc43)[C@H](O)[C@@H]2O)[C@@H](COP(=O)(O)OP(=O)(O)OP(=O)(O)OC[C@H]2O[C@@H](n3c[n+](C)c4c(=O)[nH]c(N)nc43)[C@H](O)[C@@H]2NC(=O)c2ccccc2)O[C@H]1n1cnc2c(N)ncnc21` [Compound 297] yielded a Final product mass in the experiment with mRNA [1] of 110 µg. In addition, the Relative fluorescence reading in the experiment with HEK293T cells is given as 1.79.

Consider `C=CC[n+]1cn([C@@H]2O[C@H](COP(=O)(O)OP(=O)(O)OP(=O)(O)OC[C@H]3O[C@@H](n4cnc5c(N)ncnc54)[C@H](OC)[C@@H]3OP(=O)(O)OC[C@H]3O[C@@H](n4cnc5c(=O)[nH]c(N)nc54)[C@H](O)[C@@H]3O)[C@@H](CC)[C@H]2O)c2nc(N)[nH]c(=O)c21` [Compound 716], for which the Final product mass in the experiment on mRNA [1] was determined as 103 µg. The Relative fluorescence reading with HEK293T cells is recorded as 1.50.
